Here are results for nine compounds from PubChem BioAssay (NCI).

Test systems include UACC-62 melanoma; SF-268 CNS; SR leukemia; OVCAR-8 ovarian; MCF7 breast; OVCAR-4 ovarian; DU-145 prostate; M14 melanoma; COLO 205 colon; SK-MEL-28 melanoma.
What all share (experiment): NCI-60 cell line screen, 48 h

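Dose response: 5 concentrations. Exposure: 48 h. Format: 96-well plates. Endpoint: linear interpolation; highest concentration if not reached. Here, GI50 denotes the concentration required for 50% inhibition of growth. At the TGI there is no net growth.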

Regarding `COc1ccc(S(=O)(=O)NCCNc2nccc(-c3c(-c4ccccc4)nc4sccn34)n2)cc1`, the GI50 is 1.17 µM with UACC-62 melanoma; 3.74 µM in the experiment with SF-268 CNS; 0.784 µM with SR leukemia; 3.08 µM in the experiment with OVCAR-8 ovarian; 0.873 µM in the experiment with MCF7 breast; 3.62 µM with OVCAR-4 ovarian. Besides, the GI50 is 3.37 µM in the experiment on DU-145 prostate, 2.77 µM in the experiment with M14 melanoma, 2.66 µM with COLO 205 colon and 5.79 µM with SK-MEL-28 melanoma. Besides, the TGI with UACC-62 melanoma, with SF-268 CNS, in the experiment with SR leukemia, in the experiment on OVCAR-8 ovarian, with MCF7 breast and in the experiment on OVCAR-4 ovarian was > 100 µM in each case. Further, the TGI with DU-145 prostate, with M14 melanoma, with COLO 205 colon and in the experiment with SK-MEL-28 melanoma was > 100 µM throughout.
For `N#CC1(C#N)C2C=CC(C3CCC=C32)C1(C#N)C#N` (centres undefined), the TGI in the experiment on UACC-62 melanoma, in the experiment on SF-268 CNS, in the experiment with SR leukemia, in the experiment with OVCAR-8 ovarian, in the experiment on MCF7 breast and in the experiment with OVCAR-4 ovarian was > 10 µM throughout. The TGI in the experiment with DU-145 prostate was > 10 µM; in the experiment on M14 melanoma, > 10 µM; in the experiment with COLO 205 colon, 3.66 µM; in the experiment with SK-MEL-28 melanoma it was > 10 µM.
Regarding `COc1ccc(N=C2NN=C(c3c[nH]c4ccccc34)CS2)cc1OC`, the GI50 in the experiment on UACC-62 melanoma was 4.81 µM; with SF-268 CNS it was 8.65 µM; in the experiment on SR leukemia it was 0.181 µM; with OVCAR-8 ovarian, 22.7 µM; in the experiment with MCF7 breast, 5.21 µM; in the experiment on OVCAR-4 ovarian, 16 µM. The GI50 in the experiment on DU-145 prostate is 19.5 µM; in the experiment on M14 melanoma it was 4.49 µM; in the experiment with COLO 205 colon, 6.55 µM; in the experiment on SK-MEL-28 melanoma, 15.3 µM. In addition, the TGI with UACC-62 melanoma is > 100 µM; in the experiment on SF-268 CNS, > 100 µM; in the experiment with SR leukemia, > 100 µM; with OVCAR-8 ovarian, > 89.9 µM; with MCF7 breast, > 75.5 µM; with OVCAR-4 ovarian, > 100 µM. Besides, the TGI in the experiment on DU-145 prostate was > 87.7 µM; in the experiment on M14 melanoma, > 100 µM; in the experiment on COLO 205 colon, > 76.5 µM; in the experiment with SK-MEL-28 melanoma, > 90.4 µM.
As for `CN(C)c1ccc(Sc2ccc3nc(N)nc(N)c3c2)cc1`, the GI50 in the experiment on UACC-62 melanoma is 0.519 µM; with SF-268 CNS, 0.604 µM; in the experiment on SR leukemia it was 0.629 µM; with OVCAR-8 ovarian, 0.589 µM; with MCF7 breast it was 1.14 µM; in the experiment with OVCAR-4 ovarian, 1.76 µM. The GI50 is 0.793 µM with DU-145 prostate, 0.363 µM in the experiment with M14 melanoma, 1.14 µM in the experiment on COLO 205 colon and 2.76 µM in the experiment with SK-MEL-28 melanoma. The TGI is 5.78 µM with UACC-62 melanoma; 14.3 µM in the experiment on SF-268 CNS; 6.71 µM in the experiment with SR leukemia; 9.88 µM with OVCAR-8 ovarian; 13.4 µM in the experiment with MCF7 breast; 17.1 µM with OVCAR-4 ovarian. The TGI with DU-145 prostate came out at 12.1 µM; in the experiment with M14 melanoma, 2.13 µM; in the experiment on COLO 205 colon it was 2.59 µM; in the experiment on SK-MEL-28 melanoma, 15.5 µM.
Take `COc1ccc(N(Cc2cc(OC)c(OC)c(OC)c2)C2OC(=O)c3ccccc32)cc1` (centres undefined): the GI50 in the experiment on UACC-62 melanoma is 0.498 µM; in the experiment with SF-268 CNS, 0.882 µM; in the experiment on SR leukemia, 0.456 µM; in the experiment with OVCAR-8 ovarian it was 0.779 µM; in the experiment on MCF7 breast it was 0.386 µM; in the experiment with OVCAR-4 ovarian, 5.95 µM. Further, the figures for the GI50 with DU-145 prostate, in the experiment on M14 melanoma and in the experiment with COLO 205 colon were 0.886 µM, 0.39 µM and 0.39 µM, respectively. The TGI in the experiment with UACC-62 melanoma, in the experiment with SF-268 CNS, in the experiment with SR leukemia, with OVCAR-8 ovarian, with MCF7 breast and with OVCAR-4 ovarian was > 100 µM in each case. For the same compound, the TGI in the experiment with DU-145 prostate is 54.3 µM; in the experiment on M14 melanoma it was > 100 µM; with COLO 205 colon it was 5.77 µM; with SK-MEL-28 melanoma, > 100 µM.
Take `C[C@]12CC[C@@H]3c4ccc(O)cc4CC[C@H]3[C@@H]1CC[C@@H]2NS(=O)(=O)c1ccc(-c2ccccc2)cc1`: the GI50 in the experiment on UACC-62 melanoma was 4.2 µM; in the experiment with SF-268 CNS, 3.93 µM; with SR leukemia, 4.1 µM; with OVCAR-8 ovarian, 4.69 µM; in the experiment with MCF7 breast, 3.56 µM; in the experiment on OVCAR-4 ovarian, 2.43 µM. Also, the GI50 with DU-145 prostate was 6.54 µM; in the experiment on M14 melanoma, 3.46 µM; with COLO 205 colon, 1.86 µM; with SK-MEL-28 melanoma, 5.52 µM. Also, the TGI with UACC-62 melanoma was 20 µM; in the experiment with SF-268 CNS, > 100 µM; with SR leukemia, 66.4 µM; in the experiment on OVCAR-8 ovarian, > 100 µM; in the experiment with MCF7 breast it was 11.2 µM; with OVCAR-4 ovarian, 19 µM. For the same compound, the TGI in the experiment on DU-145 prostate was > 100 µM; in the experiment with M14 melanoma, 12.9 µM; with COLO 205 colon, 3.38 µM; in the experiment on SK-MEL-28 melanoma it was 54.6 µM.
Consider `CC(=O)C1=C(O)/C(=C\c2ccco2)OC1=O`, for which the TGI in the experiment on UACC-62 melanoma, in the experiment with SF-268 CNS, in the experiment on SR leukemia, with OVCAR-8 ovarian, in the experiment on MCF7 breast and with OVCAR-4 ovarian was > 10 µM in each case. Moreover, the TGI in the experiment with DU-145 prostate, in the experiment with M14 melanoma, with COLO 205 colon and in the experiment with SK-MEL-28 melanoma was > 10 µM throughout.
On to `CCNC(=O)Oc1ccc(/C(=C(\C)c2ccc(Cl)cc2)c2ccc(OCCN3CCCCC3)cc2)cc1`, for which the GI50 in the experiment with UACC-62 melanoma was 2.5 µM; in the experiment with SF-268 CNS, 6.04 µM; in the experiment with SR leukemia, 2.98 µM; with OVCAR-8 ovarian, 9.31 µM; in the experiment on MCF7 breast it was 0.484 µM; in the experiment with OVCAR-4 ovarian it was 2.99 µM. Further, the GI50 is 10.9 µM in the experiment with DU-145 prostate, 1.87 µM with M14 melanoma, 2.1 µM in the experiment on COLO 205 colon and 1.83 µM in the experiment with SK-MEL-28 melanoma. Further, the TGI was found to be 6.01 µM in the experiment on UACC-62 melanoma; 20.9 µM with SF-268 CNS; 9.23 µM in the experiment with SR leukemia; 26 µM with OVCAR-8 ovarian; 8.06 µM with MCF7 breast; 12.9 µM in the experiment on OVCAR-4 ovarian. In addition, the TGI in the experiment with DU-145 prostate worked out at 23.7 µM; with M14 melanoma, 3.8 µM; in the experiment on COLO 205 colon, 4.6 µM; with SK-MEL-28 melanoma, 3.73 µM.
`COc1cc2c(cc1OC)[C@H]1C(=O)c3cc4c(cc3[C@H]1N(C)C2=O)OCO4`: the TGI with UACC-62 melanoma, with SF-268 CNS, in the experiment on SR leukemia, in the experiment with OVCAR-8 ovarian, with MCF7 breast and in the experiment on OVCAR-4 ovarian was > 100 µM in each case. Moreover, the TGI was > 100 µM with DU-145 prostate, > 76.6 µM in the experiment with M14 melanoma, > 46.4 µM in the experiment on COLO 205 colon and > 100 µM with SK-MEL-28 melanoma.
